Experimental data from paper PMC5706701, “Development of a homogenous high-throughput assay for inositol hexakisphosphate kinase 1 activity” (PLoS ONE, 2017).
Where a name gives a salt, the structure may show the parent alone.

Target: T1, Human IP6K1 (Homo sapiens, UniProt Q92551)
T1 construct: GST (N, cleaved yes); made in house; host or cells: C43 E. coli, pGEX-6P-2
Test: IP6K1 high-throughput screen of the Sigma LOPAC (ADP-Glo Max, single point);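 further: final compound concentration 10µM in 5% DMSO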
Type: biochemical

[1] = LOPAC single-point screen, ADP-Glo Max raw signal per well
[2] = LOPAC single-point screen, Z-score against plate average and StDev
[3] = LOPAC single-point screen, ADP-Glo Max luminescence raw signal per well
[4] = LOPAC single-point screen, Z-score relative to plate average and StDev
[5] = Sigma LOPAC single-point screen, ADP-Glo Max raw signal per well
[6] = Sigma LOPAC single-point screen, Z-score from plate average and StDev
[7] = LOPAC single-point screen, Z-score from raw signal with plate average and StDev

T1 sequence (Q92551 whole entry): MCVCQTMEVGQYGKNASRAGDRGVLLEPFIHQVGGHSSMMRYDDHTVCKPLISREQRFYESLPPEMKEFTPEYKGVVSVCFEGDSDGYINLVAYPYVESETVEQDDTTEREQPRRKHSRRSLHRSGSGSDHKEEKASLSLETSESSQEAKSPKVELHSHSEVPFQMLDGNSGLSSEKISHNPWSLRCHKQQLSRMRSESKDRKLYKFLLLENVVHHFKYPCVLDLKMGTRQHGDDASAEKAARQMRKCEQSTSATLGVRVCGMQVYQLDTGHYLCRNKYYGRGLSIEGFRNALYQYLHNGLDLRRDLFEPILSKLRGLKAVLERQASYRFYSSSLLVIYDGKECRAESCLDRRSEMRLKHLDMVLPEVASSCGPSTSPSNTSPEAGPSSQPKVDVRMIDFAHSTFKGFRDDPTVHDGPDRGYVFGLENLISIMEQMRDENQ

Row | SMILES | Raw Signal [1] | Raw Signal [5] | Z-score [6] | other results
1 | CCC(NC(C)C)C(O)c1ccc(O)c(O)c1.CS(=O)(=O)O (stereo not shown) [Isotharine mesylate] | 54100 | – | – | Z-score [2]: -0.04932
2 | Nc1nc(Cl)nc2c1ncn2[C@@H]1O[C@H](COP(=O)(O)OP(=O)(O)OP(=O)(O)O)C(O)C1O (stereo in doubt) | – | – | – | Raw Signal [3]: 49196; Z-score [4]: -1.213
3 | CC[C@]1(O)C[C@H]2CN(CCc3c([nH]c4ccccc34)[C@@](C(=O)OC)(c3cc4c(cc3OC)N(C=O)[C@H]3[C@@](O)(C(=O)OC)[C@H](OC(C)=O)[C@]5(CC)C=CCN6CC[C@]43[C@@H]65)C2)C1 [Vincristine sulfate] | – | 57865 | 0.3577 | –
4 | COC(=O)c1c(-c2cc(OC)c(OC)c(OC)c2)c2ccc(OCc3ccccn3)cc2c(=O)n1-c1ccc(N)cc1.O=S(=O)(O)O [T-1032] | 55393 | – | – | Z-score [7]: -0.1226
5 | CC(C)(C)c1cc(C=C(C#N)C#N)cc(C(C)(C)C)c1O [Tyrphostin A9] | 55633 | – | – | Z-score [2]: -0.07593
6 | N[C@@H](Cc1c[nH]c2ccc(O)cc12)C(=O)O [5-Hydroxy-L-tryptophan] | – | 60622 | 1.108 | –
7 | CN1C(=O)CC[C@H]1c1cccnc1 [(-)-Cotinine] | – | – | – | Z-score [4]: -0.59
8 | COc1ccc(C(=O)NCc2cccnc2)cc1C(=O)NCc1cccnc1 [Picotamide] | 56073 | – | – | Z-score [2]: 0.009557
9 | COc1ccc2[nH]cc(CCNC(C)=O)c2c1 [Melatonin] | 53452 | – | – | Z-score [7]: -0.1582
10 | O=C1C=CC(=O)C=C1 [p-Benzoquinone] | – | – | – | Raw Signal [3]: 51681; Z-score [4]: -1.098
11 | Cc1nc(N=Nc2ccc(C(=O)O)cc2)c(COP(=O)(O)O)c(C=O)c1O [MRS 2159] | – | – | – | Raw Signal [3]: 51283; Z-score [4]: -0.5226
12 | COc1ccccc1N1CCN(CC(O)COc2cccc3ccccc23)CC1.Cl.Cl (stereo not shown) [Naftopidil dihydrochloride] | – | 57488 | 0.52 | –
13 | CCC1(C)CC(=O)NC1=O (stereo not shown) [Ethosuximide] | – | 57090 | 0.3905 | –
14 | N#C/C(=C\c1ccc(O)c(O)c1)C(=O)N1CCc2ccccc21 [Tyrphostin AG 528] | – | 58882 | 0.5553 | –
15 | Cl.NC1C=CC=C(C(=O)O)C1 (stereo not shown) [Gabaculine hydrochloride] | – | 64092 | 1.088 | –
16 | CCCCCCCCCCC/C=C\C(C)(C)/C=C\CCCC(=O)O [7,7-Dimethyl-(5Z,8Z)-eicosadienoic acid] | 53422 | – | – | Z-score [7]: -0.3544
17 | O=C(O)C1CN(CCCP(=O)(O)O)CCN1 (racemic) [(±)-CPP] | – | 59493 | 0.8786 | –
18 | COC(=O)N1CCN(C(=O)Cc2ccc(Cl)c(Cl)c2)C(CN2CCCC2)C1.O=C(O)/C=C/C(=O)O (stereo not shown) [GR-89696 fumarate] | 54440 | – | – | Z-score [7]: -0.1477
19 | C[C@H]1O[C@@H](n2cc(F)c(=O)[nH]c2=O)[C@H](O)[C@@H]1O [5-fluoro-5-deoxyuridine] | 53997 | – | – | Z-score [7]: -0.2376
20 | O=C(O)CNC(=O)C(CS)Cc1ccccc1 (racemic) [DL-Thiorphan] | 55327 | – | – | Z-score [7]: -0.1354
21 | Nc1nc(SCc2ccc([N+](=O)[O-])cc2)c2ncn([C@@H]3O[C@H](CO)[C@@H](O)[C@H]3O)c2n1 [S-(4-Nitrobenzyl)-6-thioguanosine] | – | 63053 | 0.9053 | –
22 | CNC(=O)[C@H]1O[C@@H](n2cnc3c(NCc4ccc(N)cc4)ncnc32)[C@H](O)[C@@H]1O [AB-MECA] | – | – | – | Raw Signal [3]: 53262; Z-score [4]: -0.8192
23 | C[C@]12CCC(=O)C=C1CC[C@@H]1[C@@H]2C(=O)C[C@@]2(C)[C@H]1CC[C@]2(O)C(=O)CO [Cortisone] | – | 65066 | 1.26 | –
24 | O=C(O)/C=C\C(=O)O.O=[N+]([O-])c1ccc2nc(N3CCNCC3)ccc2c1 [Quipazine, 6-nitro-, maleate] | – | – | – | Z-score [7]: -0.2764
